Data as given in US12599134B2, “Herbicidal compositions comprising acetochlor” (BASF SE, priority 2024, dated 2026).

Experiments:
[1] = test system: emerged weeds; experiment: Post-emergence application in field trials (expected value by Colby); type: in vivo
Experimental: (§1) In the examples below, using the method of S. R. Colby (1967) “Calculating synergistic and antagonistic responses of herbicide combinations”, Weeds 15, p. 22ff., the value E, which is expected if the activity of the individual active compounds is only additive, was calculated:
(§2) [formula] • where • X=percent activity using active herbicide A at an application rate a; • Y=percent activity using active herbicide B (e.g. acetochlor) at an application rate b; • E=expected activity (in %) by A+B at application rates a+b.
(§3) If the value found experimentally is higher than the value E calculated according to Colby, a synergistic effect is present.
(§4) Evaluation was carried out using a scale from 0 to 100. 100 means no emergence of the plants, or complete destruction of at least the above-ground parts, and 0 means no damage or normal course of growth. A good herbicidal activity is given at values of at least 70, and very good herbicidal activity is given at values of at least 85.
Herbicide A-1 and acetochlor were, together with addition of 0.25% MSO (methylated sed oil) as adjuvant, formulated in water as distribution medium (water volume 200 l/ha) and sprayed with commercial flat fan nozzles.

[2] = test system: emerged weeds; experiment: Post-emergence application in greenhouse trials (scale 0 to 100; expected value by Colby); type: in vivo
Experimental: as §1, §2, §3
The culture containers used were plastic pots containing loamy sand with approximately 3.0% of humus as substrate. The seeds of the test plants were sown separately for each species.
[…] To this end, the test plants were either sown directly, and grown in the same containers, or they were first grown separately as seedlings and transplanted into the test containers a few days prior to treatment.
Depending on the species, the plants were kept at 10-25° C. and 20-35° C., respectively. The test period extended over 2 to 4 weeks. During this time, the plants were tended and their response to the individual treatments was evaluated.
as §4
Herbicide A-1 and acetochlor were, together with addition of 0.5% MSO (methylated sed oil) as adjuvant, formulated in water as distribution medium (water volume 200 l/ha) and sprayed with commercial flat fan nozzles.
Herbicide A-1, acetochlor and mesotrione were, together with addition of 0.5 v/v % MSO (methylated sed oil) as adjuvant, formulated in water as distribution medium (water volume 200 l/ha) and sprayed with commercial flat fan nozzles.
Herbicide A-1, acetochlor and topramezone were, together with addition of 0.5 v/v % MSO (methylated sed oil) as adjuvant, formulated in water as distribution medium (water volume 200 l/ha) and sprayed with commercial flat fan nozzles.

[3] = AMARE, growth stage 31-49, height 10-12 cm, 7 DAT, g ai/ha: A-1 12.5, B 1050
[4] = AMARE, growth stage 31-49, height 10-12 cm, 21 DAT, g ai/ha: A-1 12.5, B 1050
[5] = DIGSA, growth stage 22, height 10-15 cm, 7 DAT, g ai/ha: A-1 12.5, B 1050
[6] = DIGSA, growth stage 22, height 10-15 cm, 21 DAT, g ai/ha: A-1 12.5, B 1050
[7] = DIGSA, growth stage 22, height 10-15 cm, 42 DAT, g ai/ha: A-1 12.5, B 1050
[8] = ECHCG, growth stage 22-23, height 19-30 cm, 7 DAT, g ai/ha: A-1 12.5, B 1050
[9] = ECHCG, growth stage 22-23, height 19-30 cm, 7 DAT, g ai/ha: A-1 18, B 1050
[10] = ECHCG, growth stage 22-23, height 19-30 cm, 21 DAT, g ai/ha: A-1 12.5, B 1050
[11] = ECHCG, growth stage 22-23, height 19-30 cm, 21 DAT, g ai/ha: A-1 18, B 1050
[12] = ECHCG, growth stage 22-23, height 19-30 cm, 42 DAT, g ai/ha: A-1 12.5, B 1050
[13] = ECHCG, growth stage 22-23, height 19-30 cm, 42 DAT, g ai/ha: A-1 18, B 1050
[14] = GLXMA, growth stage 12-13, height 7-11 cm, 42 DAT, g ai/ha: A-1 18, B 1050
[15] = HORVW, growth stage 23-29, height 20-25 cm, 21 DAT, g ai/ha: A-1 12.5, B 1050
[16] = HORVW, growth stage 23-29, height 20-25 cm, 21 DAT, g ai/ha: A-1 18, B 1050
[17] = HORVW, growth stage 23-29, height 20-25 cm, 28 DAT, g ai/ha: A-1 12.5, B 1050
[18] = HORVW, growth stage 23-29, height 20-25 cm, 28 DAT, g ai/ha: A-1 18, B 1050
[19] = ZEAMX, growth stage 15-16, height 50-60 cm, 7 DAT, g ai/ha: A-1 12.5, B 1050
[20] = ZEAMX, growth stage 15-16, height 50-60 cm, 21 DAT, g ai/ha: A-1 12.5, B 1050
[21] = ZEAMX, growth stage 15-16, height 50-60 cm, 28 DAT, g ai/ha: A-1 12.5, B 1050
[22] = ZEAMX, growth stage 15-16, height 50-60 cm, 28 DAT, g ai/ha: A-1 18, B 1050
[23] = ABUTH, growth stage 15, 7 DAT, g ai/ha: A-1 0.5, B 200, C-24 50
[24] = ABUTH, growth stage 15, 7 DAT, g ai/ha: A-1 0.5, B 200, C-25 3.125
[25] = ABUTH, growth stage 15, 21 DAT, g ai/ha: A-1 0.25, B 200, C-24 50
[26] = AVEFA, growth stage 11, 7 DAT, g ai/ha: A-1 2, B 200, C-25 3.125
[27] = AVEFA, growth stage 11, 21 DAT, g ai/ha: A-1 2, B 200, C-24 50
[28] = AVEFA, growth stage 11, 21 DAT, g ai/ha: A-1 2, B 200, C-25 3.125
[29] = AVEFA, growth stage 12, 7 DAT, g ai/ha: A-1 2, B 400
[30] = AVEFA, growth stage 12, 19 DAT, g ai/ha: A-1 2, B 400
[31] = BRADC, growth stage 11, 21 DAT, g ai/ha: A-1 2, B 200, C-25 3.125
[32] = COMBE, growth stage 13, 21 DAT, g ai/ha: A-1 1, B 200, C-24 50
[33] = COMBE, growth stage 13, 21 DAT, g ai/ha: A-1 1, B 200, C-25 3.125
[34] = ECHCG, growth stage 12, 21 DAT, g ai/ha: A-1 2, B 200, C-24 50
[35] = ECHCG, growth stage 12, 21 DAT, g ai/ha: A-1 2, B 200, C-25 3.125
[36] = ECHCG, growth stage 13, 7 DAT, g ai/ha: A-1 0.5, B 400
[37] = ECHCG, growth stage 13, 19 DAT, g ai/ha: A-1 0.5, B 400
[38] = ELEIN, growth stage 14, 7 DAT, g ai/ha: A-1 2, B 400
[39] = ERICA, growth stage 19, 7 DAT, g ai/ha: A-1 2, B 200, C-25 3.125
[40] = GLXMA, growth stage 18, 7 DAT, g ai/ha: A-1 1, B 200, C-25 3.125
[41] = KCHSC, growth stage 29, 21 DAT, g ai/ha: A-1 1, B 200, C-25 3.125
[42] = KCHSC, growth stage 29, 21 DAT, g ai/ha: A-1 2, B 200, C-25 3.125
[43] = LOLMU, growth stage 11, 7 DAT, g ai/ha: A-1 2, B 200, C-25 3.125
[44] = LOLMU, growth stage 11, 21 DAT, g ai/ha: A-1 2, B 200, C-25 3.125
[45] = ZEAMX, growth stage 12, 21 DAT, g ai/ha: A-1 2, B 200, C-24 50
[46] = ZEAMX, growth stage 12, 21 DAT, g ai/ha: A-1 2, B 200, C-25 3.125

## CCOCN(C(=O)CCl)c1c(C)cccc1CC [B, acetochlor]
[1]; [3]
  % Herbicidal activity: 40%
[1]; [4]
  % Herbicidal activity: 25%
[1]; [5]
  % Herbicidal activity: 10%
[1]; [6]
  % Herbicidal activity: 10%
[1]; [7]
  % Herbicidal activity: 10%
[1]; [8]
  % Herbicidal activity: 0%
[1]; [9]
  % Herbicidal activity: 0%
[1]; [10]
  % Herbicidal activity: 0%
[1]; [11]
  % Herbicidal activity: 0%
[1]; [12]
  % Herbicidal activity: 0%
[1]; [13]
  % Herbicidal activity: 0%
[1]; [14]
  % Herbicidal activity: 20%
[1]; [15]
  % Herbicidal activity: 10%
[1]; [16]
  % Herbicidal activity: 10%
[1]; [17]
  % Herbicidal activity: 10%
[1]; [18]
  % Herbicidal activity: 10%
[1]; [19]
  % Herbicidal activity: 8%
[1]; [20]
  % Herbicidal activity: 0%
[1]; [21]
  % Herbicidal activity: 0%
[1]; [22]
  % Herbicidal activity: 0%
[2]; [23]
  % Herbicidal activity: 0%
[2]; [24]
  % Herbicidal activity: 0%
[2]; [25]
  % Herbicidal activity: 0%
[2]; [26]
  % Herbicidal activity: 0%
[2]; [27]
  % Herbicidal activity: 0%
[2]; [28]
  % Herbicidal activity: 0%
[2]; [29]
  % Herbicidal activity: 0%
[2]; [30]
  % Herbicidal activity: 0%
[2]; [31]
  % Herbicidal activity: 5%
[2]; [32]
  % Herbicidal activity: 5%
[2]; [33]
  % Herbicidal activity: 5%
[2]; [34]
  % Herbicidal activity: 5%
[2]; [35]
  % Herbicidal activity: 5%
[2]; [36]
  % Herbicidal activity: 10%
[2]; [37]
  % Herbicidal activity: 60%
[2]; [38]
  % Herbicidal activity: 0%
[2]; [39]
  % Herbicidal activity: 15%
[2]; [40]
  % Herbicidal activity: 0%
[2]; [41]
  % Herbicidal activity: 0%
[2]; [42]
  % Herbicidal activity: 0%
[2]; [43]
  % Herbicidal activity: 0%
[2]; [44]
  % Herbicidal activity: 0%
[2]; [45]
  % Herbicidal activity: 5%
[2]; [46]
  % Herbicidal activity: 5%

## Cc1c(C(=O)c2cnn(C)c2O)ccc(S(C)(=O)=O)c1C1=NOCC1 [C-25, topramezone]
[2]; [24]
  % Herbicidal activity: 50%
[2]; [26]
  % Herbicidal activity: 10%
[2]; [28]
  % Herbicidal activity: 10%
[2]; [31]
  % Herbicidal activity: 55%
[2]; [33]
  % Herbicidal activity: 35%
[2]; [35]
  % Herbicidal activity: 80%
[2]; [39]
  % Herbicidal activity: 35%
[2]; [40]
  % Herbicidal activity: 20%
[2]; [41]
  % Herbicidal activity: 10%
[2]; [42]
  % Herbicidal activity: 10%
[2]; [43]
  % Herbicidal activity: 0%
[2]; [44]
  % Herbicidal activity: 0%
[2]; [46]
  % Herbicidal activity: 0%

## CCOC(=O)COc1ccccc1Oc1nc(-n2c(=O)cc(C(F)(F)F)n(C)c2=O)c(F)cc1Cl [A-1, ethyl 2-[2-[[3-chloro-5-fluoro-6-[3-methyl-2,6-dioxo-4-(trifluoromethyl)pyrimidin-1-yl]-2-pyridyl]oxy]phenoxy]acetate]
[1]; [3]
  % Herbicidal activity: 95%
[1]; [4]
  % Herbicidal activity: 80%
[1]; [5]
  % Herbicidal activity: 75%
[1]; [6]
  % Herbicidal activity: 70%
[1]; [7]
  % Herbicidal activity: 70%
[1]; [8]
  % Herbicidal activity: 55%
[1]; [9]
  % Herbicidal activity: 55%
[1]; [10]
  % Herbicidal activity: 50%
[1]; [11]
  % Herbicidal activity: 55%
[1]; [12]
  % Herbicidal activity: 45%
[1]; [13]
  % Herbicidal activity: 50%
[1]; [14]
  % Herbicidal activity: 85%
[1]; [15]
  % Herbicidal activity: 70%
[1]; [16]
  % Herbicidal activity: 80%
[1]; [17]
  % Herbicidal activity: 95%
[1]; [18]
  % Herbicidal activity: 95%
[1]; [19]
  % Herbicidal activity: 80%
[1]; [20]
  % Herbicidal activity: 70%
[1]; [21]
  % Herbicidal activity: 40%
[1]; [22]
  % Herbicidal activity: 70%
[2]; [23]
  % Herbicidal activity: 85%
[2]; [24]
  % Herbicidal activity: 85%
[2]; [25]
  % Herbicidal activity: 60%
[2]; [26]
  % Herbicidal activity: 55%
[2]; [27]
  % Herbicidal activity: 30%
[2]; [28]
  % Herbicidal activity: 30%
[2]; [29]
  % Herbicidal activity: 75%
[2]; [30]
  % Herbicidal activity: 75%
[2]; [31]
  % Herbicidal activity: 30%
[2]; [32]
  % Herbicidal activity: 80%
[2]; [33]
  % Herbicidal activity: 80%
[2]; [34]
  % Herbicidal activity: 30%
[2]; [35]
  % Herbicidal activity: 30%
[2]; [36]
  % Herbicidal activity: 40%
[2]; [37]
  % Herbicidal activity: 15%
[2]; [38]
  % Herbicidal activity: 75%
[2]; [39]
  % Herbicidal activity: 80%
[2]; [40]
  % Herbicidal activity: 90%
[2]; [41]
  % Herbicidal activity: 60%
[2]; [42]
  % Herbicidal activity: 75%
[2]; [43]
  % Herbicidal activity: 10%
[2]; [44]
  % Herbicidal activity: 10%
[2]; [45]
  % Herbicidal activity: 40%
[2]; [46]
  % Herbicidal activity: 40%

## CS(=O)(=O)c1ccc(C(=O)C2C(=O)CCCC2=O)c([N+](=O)[O-])c1 [C-24, mesotrione]
[2]; [23]
  % Herbicidal activity: 60%
[2]; [25]
  % Herbicidal activity: 90%
[2]; [27]
  % Herbicidal activity: 10%
[2]; [32]
  % Herbicidal activity: 90%
[2]; [34]
  % Herbicidal activity: 95%
[2]; [45]
  % Herbicidal activity: 0%
